The target of this experiment is T1, EntE (Escherichia coli, UniProt P10378).
T1 sequence (P10378 1-536): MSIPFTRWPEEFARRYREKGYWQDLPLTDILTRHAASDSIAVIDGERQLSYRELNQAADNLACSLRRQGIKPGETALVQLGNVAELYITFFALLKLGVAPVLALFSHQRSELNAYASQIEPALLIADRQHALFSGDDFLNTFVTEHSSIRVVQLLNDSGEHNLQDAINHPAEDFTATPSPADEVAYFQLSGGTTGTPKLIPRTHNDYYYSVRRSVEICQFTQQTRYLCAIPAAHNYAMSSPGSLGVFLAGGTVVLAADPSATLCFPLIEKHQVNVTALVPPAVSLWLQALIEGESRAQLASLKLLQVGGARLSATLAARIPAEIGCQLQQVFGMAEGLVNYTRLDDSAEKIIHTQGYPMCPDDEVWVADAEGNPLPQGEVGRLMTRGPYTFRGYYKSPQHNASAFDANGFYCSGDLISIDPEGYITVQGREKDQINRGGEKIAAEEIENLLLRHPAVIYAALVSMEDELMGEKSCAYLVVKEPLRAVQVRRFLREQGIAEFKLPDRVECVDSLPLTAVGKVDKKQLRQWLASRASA
Put plainly: enzyme inhibition kinetics versus ATP. The experiment is classed as biochemical.

In general, Ki refers to the equilibrium dissociation constant of an inhibitor or competing ligand from its target. Low readings indicate tighter binding, high ones weaker binding.

In turn, `Nc1ncnc2c1ncn2[C@@H]1O[C@H](COP(=O)(O)OP(=O)(O)OP(=O)(O)OP(=O)(O)OC[C@H]2O[C@@H](n3cnc4c(N)ncnc43)[C@H](O)[C@@H]2O)[C@@H](O)[C@H]1O` [Ap4A, P^1, P^3-diadenosine-5′-tetraphosphate] showed a Ki of 1200 ± 100 nM.
